Source: PMC7111470 (European Journal of Medicinal Chemistry, 2011)

Assays:
[1] = target: T1, BCoV 9-SOAE (haemagglutinin-esterase on whole virus) (Bovine coronavirus Mebus, UniProt P15776); test: pNPA hydrolysis, A400; assay type: biochemical; details: read-out: BCoV / 3
[2] = target: T1, BCoV 9-SOAE (haemagglutinin-esterase on whole virus); test: pNPA hydrolysis, A400; assay type: biochemical

T1 sequence (P15776 17-424): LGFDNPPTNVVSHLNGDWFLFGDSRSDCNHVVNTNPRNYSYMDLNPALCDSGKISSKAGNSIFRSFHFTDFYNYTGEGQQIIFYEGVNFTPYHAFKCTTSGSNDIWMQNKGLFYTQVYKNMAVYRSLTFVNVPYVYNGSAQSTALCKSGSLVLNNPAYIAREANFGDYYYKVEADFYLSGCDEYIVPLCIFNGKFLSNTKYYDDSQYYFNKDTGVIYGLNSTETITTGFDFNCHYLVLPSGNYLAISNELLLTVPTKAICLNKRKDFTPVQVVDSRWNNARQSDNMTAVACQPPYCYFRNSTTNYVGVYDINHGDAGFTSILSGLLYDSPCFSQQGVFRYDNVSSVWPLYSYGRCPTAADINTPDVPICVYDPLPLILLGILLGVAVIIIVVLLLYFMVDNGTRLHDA

Compound	inhibition at 2000 µM [1]	pNPA hydrolysis, A400 [2]
C=CCO[C@]1(C(=O)O)C[C@H](O)[C@@H](NC(C)=O)[C@H]([C@H](O)[C@H](O)COC)O1 [compound 3, Ammonium (allyl 5-acetamido-9-O-methyl-3,5-dideoxy-d-glycero-α-d-galacto-2-nonulopyranosidonate)]	< 0%	–
CC(=O)Oc1ccc([N+](=O)[O-])cc1 [p-nitrophenyl acetate]	–	esterase activities of all viruses and recombinant proteins were determined with p-nitrophenyl acetate (pNPA)
